Measured values taken from patent US10925867B2, “Immunotherapeutic dosing regimens comprising pomalidomide and an anti-CS1 antibody for treating cancer” (Bristol-Myers Squibb Company, priority 2015, dated 2021).
Like-named read-outs stand apart in the source and are kept apart here.

What was measured:
[1] = system: OPM2 xenograft; details: for Median Days to Target Size / LCK / CR (complete tumor regressions) / PR (partial tumor regressions) / TGI: Study #2; for Median Days to Target Size: ELO 0.5 mg/kg IP 2QW from d12, POM 5 mg/kg PO QD × 5 d12, 19, DEX 5 mg/kg IP QD × 7 from d12, target size 1 gm; for LCK / CR (complete tumor regressions) / PR (partial tumor regressions) / TGI: ELO 0.5, POM 5, DEX 5 mg/kg; for CR (complete tumor regressions) / PR (partial tumor regressions): mice of 8; for TGI: versus untreated mice
Protocol: FIGS. 4A-B. Study #2 (OPM2-16), Antitumor Activity, Elotuzumab Efficacy in Combination with Pomalidomide and Dexamethasone in OPM2 Multiple Myeloma Xenograft. Mice with established OPM2 xenograft tumors were randomized into 2 groups with 8 mice per group and were administered one of the following sets of regimens: (A) Control group was left untreated (filled circles), elotuzumab (0.5 mg/kg, twice weekly IP for 6 doses starting d12, open circles), dexamethasone (5 mg/kg, daily IP for 7 doses starting on d12, open triangles), elotuzumab (0.5 mg/kg, twice weekly IP for 8 doses starting d12) plus dexamethasone combination (filled triangles), pomalidomide (5 mg/kg, daily for 5 days orally starting on d12 and then again for 5 days on d19) plus dexamethasone combination (dashes); or (B) Control group was left untreated (filled circles), elotuzumab (0.5 mg/kg, twice weekly IP for 6 doses starting d12, open circles), pomalidomide (5 mg/kg, daily for 5 days orally starting on d12 and then again for 5 days on d19, open squares), elotuzumab (0.5 mg/kg, twice weekly IP for 8 doses starting d12) plus pomalidomide combination (filled squares), elotuzumab (0.5 mg/kg, twice weekly IP for 8 doses starting d12) plus pomalidomide plus dexamethasone combination (x's). The data are presented as means+/−standard deviation.
(§1) FIGS. 5A-H. Study #2 (OPM2-16), Anti Tumor Activity of Elotuzumab, Pomalidomide, and Dexamethasone as Single Agent and Combination Treatment in OPM2 Multiple Myeloma Xenograft tumor model. Mice with established OPM2 xenograft tumors were randomized into groups with 8 mice per group and were administered one of the following regimens: (A): untreated (control); (B): elotuzumab; (C): pomalidomide; (D): dexamethasone; (E): elotuzumab plus pomalidomide; (F): elotuzumab plus dexamethasone; (G): pomalidomide plus dexamethasone; or (H): elotuzumab plus pomalidomide plus dexamethasone. Data represent tumor weight measured in individual animals. Dosing route and regimen are described in FIG. 4 and Example 1.
(§2) Animals: All mice were obtained from Taconic Biosciences (Germantown, N.Y.), and maintained in ammonia-free environment in a defined and pathogen-free colony. All animal procedures were approved by the Bristol-Myers Squibb (BMS) Institutional Animal Care and Use Committee. The animal care and use program at BMS has been fully accredited by the Association for Assessment and Accreditation of Laboratory Animal Care International (AAALAC).
(§3) Animal Models: The human tumor xenograft OPM2 was grown in IcrTac scid mice (ICRPrkdcscid). Treated animals were checked daily for treatment related toxicity/mortality. Each group of animals was weighed before the initiation of treatment (Wt1) and then weighed again following the last treatment dose (Wt2). The difference in body weight (Wt2-Wt1) provides a measure of treatment-related toxicity. Additional weights were recorded at each measurement date to monitor toxicity.
(§4) Tumor response was determined by measurement of tumors with a caliper twice a week, until the tumors reached a predetermined “target” size of 1 gm. Tumor weights (mg) were estimated from the formula: Tumor weight=(length×width2)/2.
(§5) Tumor response end-point was expressed in terms of tumor cell kill and tumor growth inhibition. Tumor growth delay was defined as the difference in time (days) required for the treated tumors (T) to reach a predetermined target size compared to those in the control group (C). For this purpose tumor weight of a group was expressed as […] tumor weight (MTW).
(§6) Tumor cell kill was expressed in terms of log cell kill (LCK), represented by the equation LCK=[…] where tumor volume doubling time (TVDT) was first calculated with the formula: TVDT=Median time (days) for control tumor weight to reach target size−Median time (days) for control tumor weight to reach half the target size.

[2] = system: OPM2 xenograft; details: for Median Days to Target Size / LCK / CR (complete tumor regressions) / PR (partial tumor regressions) / TGI: Study #1; for Median Days to Target Size: ELO 0.5 mg/kg IP 2QW from d16, POM 5 mg/kg PO QD × 5 d16, 23, DEX 5 mg/kg IP QD × 7 from d16, target size 1 gm; for LCK / CR (complete tumor regressions) / PR (partial tumor regressions) / TGI: ELO 0.5, POM 5, DEX 5 mg/kg; for CR (complete tumor regressions) / PR (partial tumor regressions): mice of 8; for TGI: versus untreated mice; for Max % Weight Loss: mouse, in vivo
Protocol: Mice with established OPM2 xenograft tumors were randomized into 2 groups with 8 mice per group and were administered one of the following sets of regimens: (A) Control group was left untreated (filled circles), elotuzumab (0.5 mg/kg, twice weekly IP for 7 doses starting d16, open circles), dexamethasone (5 mg/kg, daily IP for 7 doses starting on d16, open triangles), elotuzumab plus dexamethasone combination (filled triangles), pomalidomide (5 mg/kg, daily for 5 days orally starting on d16 and then again for 5 days on d23) plus dexamethasone combination (dashes); or (B) Control group was left untreated (filled circles), elotuzumab (0.5 mg/kg, twice weekly IP for 7 doses starting d16, open circles), pomalidomide (5 mg/kg, daily for 5 days orally starting on d16 and then again for 5 days on d23, open squares), elotuzumab (0.5 mg/kg, twice weekly IP for 10 doses starting d16) plus pomalidomide combination (filled squares), elotuzumab (10 doses) plus pomalidomide plus dexamethasone combination (x's). The data are presented as means+/−standard deviation.
as §1, with “Mice” for “FIGS. 5A-H. Study #2 (OPM2-16), Anti Tumor Activity of Elotuzumab, Pomalidomide, and Dexamethasone as Single Agent and Combination Treatment in OPM2 Multiple Myeloma Xenograft tumor model. Mice”, “2” for “4”
as §2, §3, §4, §5, §6

[3] = system: OPM2 xenograft; experiment: OPM2 xenograft studies taken together (summary and conclusion); type: in vivo, mice; details: elotuzumab 0.5 mg/kg, pomalidomide 5 mg/kg, dexamethasone 5 mg/kg
Protocol: The present invention is based on data from preclinical studies conducted in female SCID mice (6-8 weeks old) that were implanted SC (subcutaneous implantation) with the multiple myeloma cell line OPM-2 which were treated with Elotuzumab IP (intraperitoneal administration) alone, treated with pomalidomide alone, treated with dexamethasone alone, or treated in combination with each other. […] All treatments were well tolerated, with no significant changes in body weights or overt signs of clinical toxicity.
Dosing regimen for dexamethasone was QD×7.

[4] = system: relapsed or refractory multiple myeloma; details: with lenalidomide and low-dose dexamethasone; 10 mg/kg dose; cited from earlier work

Nc1cccc2c1C(=O)N(C1CCC(=O)NC1=O)C2=O (racemic) [Pomalidomide, (RS)-4-amino-2-(2,6-dioxo-piperidin-3-yl)-isoindole-1,3-dione]
Median Days to Target Size [1]: 22.5 days
LCK [1]: 0.33
CR (complete tumor regressions) [1]: 0/8
PR (partial tumor regressions) [1]: 0/8
TGI [1]: 41.4%
Max % Weight Loss ([1]; mouse, in vivo): −1.1%
Median Days to Target Size [2]: 29.8 days
LCK [2]: 0.26
CR (complete tumor regressions) [2]: 0/8
PR (partial tumor regressions) [2]: 0/8
TGI [2]: 52%
Max % Weight Loss [2]: −1.1%
efficacy / effect on tumor growth (in words) [3]: inhibited tumor growth

Elotuzumab: humanized monoclonal IgG1 antibody directed against CS-1; VL SEQ ID NO:1, VH SEQ ID NO:2
PFS [4]: 33 month
response rate [4]: 92%
Median Days to Target Size [1]: 24.0 days
LCK [1]: 0.47
CR (complete tumor regressions) [1]: 0/8
PR (partial tumor regressions) [1]: 0/8
TGI [1]: 57.7%
Median Days to Target Size [2]: 35.0 days
LCK [2]: 0.61
CR (complete tumor regressions) [2]: 0/8
PR (partial tumor regressions) [2]: 0/8
TGI [2]: 70.3%
Max % Weight Loss [2]: −2.2%
efficacy / effect on tumor growth (in words) [3]: inhibited tumor growth
